# Reference: patent US8241607B2, “Use of fructose-based compounds for the diagnosis of cancer” (priority 2005, dated 2012)
# Experiments:
# Format in all cases: cell-based
# transketolase (TKK) = experiment: Transketolase activity in PANC-1 lysates (NADH oxidation); settings: 5.5 mM fructose, 72 h
# Procedure: FIG. 34 depicts quantitation of transketolase activity in pancreatic cancer PANC-1 cells following incubation in 2 mM glucose, 5.5 mM glucose, and 5.5 mM fructose for 24 h, 48 h, and 72 h respectively, in accordance with an embodiment of the present invention.
# The inventors believe that fructose-treatment of pancreatic cancer cells led to an increase in TKK-driven nucleic acid synthesis, and thus fructose-treatment would result in an increase in either PANC-1 TKK expression and/or activity in comparison to equivalent glucose concentrations. Western blot analysis on protein lysates derived from fructose-, and glucose-treated PANC-1 cells were performed (5.5 mM fructose, and glucose for 24, and 48 h as per previous protocol) using a specific TKK antibody, and compared TKK expression in the fructose-, and glucose-treated PANC-1 cells. As depicted in FIG. 33, TKK expression at 24 h, and 48 h in protein lysates derived from 5.5 mM glucose-treated PANC-1 cells was increased in comparison to expression in 2 mM glucose-treated cells. […] After gentle mixing the absorbance of the mixture was measured at 10 min intervals for 2 h at 340 nm. Transketolase activity was then derived from the difference in absorbance at 10, and 80 minutes, and expressed as nmol/min/million cells. […] Pancreatic cancer proliferation rates were then measured using the MTS assay (FIG. 35).
# AP-1 = AP-1 probe binding assay on nuclear extracts of PANC-1 cells; settings: 5.5 mM fructose, 48 h
# Procedure: FIG. 24 depicts luciferase activity of PANC-1 cells and primary culture of surgically resected pancreatic tumor cells in accordance with an embodiment of the present invention. PANC-1 pancreatic cancer cells and a primary culture of a surgically resected pancreatic tumor were incubated in 2 mM glucose, 5.5 mM glucose or 5.5 mM fructose for 48 h, after which nuclear extracts were incubated with a biotinylated AP-1 probe, and detected by an antibody-linked colorimetric method. *, p<0.01
# In separate experiments PANC-1 cells, and primary cultures of surgically resected pancreatic tumors were incubated in 2 mM glucose, or 5.5 mM glucose or 5.5 mM fructose for 48 h, after which nuclear extracts were incubated with a biotinylated AP-1 probe in binding buffer. AP-1/AP1 probe complexes were next conjugated to a streptavidin-coated assay plate and detected using an AP-1 specific antibody, followed by binding of a horseradish-peroxidase conjugated secondary antibody, and detection by a colorimetric reagent.
# GLUT-5 mRNA = experiment: Quantitative real-time RT-PCR of GLUT-5 mRNA in MCF-7 cells
# Procedure: FIG. 10 depicts GLUT-5 expression levels in accordance with an embodiment of the present invention. MCF-7 breast cancer cells were incubated in 2 mM glucose (Glu), 5.5 mM glucose (Glu) or 5.5 mM fructose (Fru) for 4 or 24 hours, after which GLUT-5 expression was quantified using real-time RT-PCR, normalized to GAPDH levels, and expressed as fold-increase compared to GLUT-5 levels detected in MCF-7 cells cultured in 2 mM glucose for a similar time period.
# Cellular fructose uptake is facilitated by a member of solute carrier family 2, called glucose transporter type 5 (GLUT-5). Following incubation of MCF-7 breast cancer cells in 2 mM, 5.5 mM glucose or 5.5 mM fructose for […], total RNA was harvested, and analyzed by quantitative real-time RT-PCR analysis using GLUT-5 specific primers to quantify GLUT-5 mRNA expression. GLUT-5 expression was normalized to GAPGH mRNA expression, and expressed as fold-change in comparison to control breast cancer cells incubated in 2 mM glucose for 4, and 24 hours.
structure (smiles),measurement,setting,value
O=C(CO)[C@@H](O)[C@H](O)[C@H](O)CO [fructose],TKK activity in comparison to 5.5 mM glucose-treated cells,transketolase (TKK),1.7 fold higher
same,AP-1 luciferase reporter activity higher than in 5.5 mM glucose,AP-1,approximately 40%
same,increase in GLUT-5 expression,"GLUT-5 mRNA; 5.5 mM fructose compared to 5.5 mM glucose, 24 hour incubation",two-fold increase
same,change in GLUT-5 mRNA expression,"GLUT-5 mRNA; 5.5 mM glucose or 5 mM fructose, 4 hours, vs 2 mM glucose",no significant change
